According to US7597882B2, “Protein crosslinkers, crosslinking methods and applications thereof” (Incept LLC, priority 2006, dated 2009):

Experiments:
albumin = target: T1, albumin (Bos taurus, UniProt P02769); assay: Gelation of albumin solution in PBS by synthetic crosslinker after raising pH; design: species or system bovine; conditions: for time to soft hydrogel: 333 mg bovine serum albumin in 0.667 ml PBS; for Gel time: 27° C.
T1 construct: 333 mg bovine serum albumin was dissolved in 0.667 ml PBS
T1 sequence (P02769 25-607): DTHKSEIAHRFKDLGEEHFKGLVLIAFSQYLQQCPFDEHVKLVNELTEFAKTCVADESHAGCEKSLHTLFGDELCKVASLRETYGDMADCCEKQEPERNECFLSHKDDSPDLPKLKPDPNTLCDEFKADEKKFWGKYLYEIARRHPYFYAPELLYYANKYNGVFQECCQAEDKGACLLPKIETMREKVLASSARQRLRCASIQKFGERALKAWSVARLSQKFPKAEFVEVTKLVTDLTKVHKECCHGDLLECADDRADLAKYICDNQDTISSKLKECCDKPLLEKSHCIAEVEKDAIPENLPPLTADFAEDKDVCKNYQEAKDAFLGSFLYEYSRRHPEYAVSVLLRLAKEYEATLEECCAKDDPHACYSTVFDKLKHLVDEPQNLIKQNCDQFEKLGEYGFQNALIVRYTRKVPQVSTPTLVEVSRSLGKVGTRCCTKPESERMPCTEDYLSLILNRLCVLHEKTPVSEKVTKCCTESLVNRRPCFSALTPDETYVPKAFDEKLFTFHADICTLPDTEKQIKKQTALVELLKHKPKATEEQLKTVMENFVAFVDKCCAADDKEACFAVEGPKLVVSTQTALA
Source text: As described above, a biological fluid (e.g., blood, serum, or fibrinogen rich fractions) may be used for reaction with crosslinkers or the monomers to form a crosslinked gel material. The material may be made in preparation for a medical procedure, e.g., immediately before or during the same, and used with a crosslinker or the monomer. […] The crosslinking reaction is accelerated by raising the pH of the solution. This can be achieved by contacting such composition with suitable alkaline buffer. Nonlimiting examples of suitable alkaline buffers include HEPES, sodium hydroxide, potassium hydroxide, calcium hydroxide, bicarbonate/NaOH pH 10, sodium borate pH 10, 1.5 M glycine/NaOH pH 10, 0.5-0.75M sodium carbonate/bicarbonate pH 10, 1M hydroxyethylepiperazine propane sulfonic acid (EPPS) pH 8.5, Trishydroxymethyl aminoethane sulphonic acid pH 8 and triethanol amine pH 7. The amount of alkaline buffer that is utilized should be enough to induce crosslinking. In some cases, the crosslinker is mixed with the alkaline buffer to raise the pH and then mixed with biological fluid to induce crosslinking or gelation. This method is least preferred due to hydrolysis of n-hydroxysuccimide esters at higher pH. The amine-succinimide ester reaction parameters such as number of reactive functional groups present on the biological fluid components, concentration of each ingredient, pH, temperature and pressures are adjusted such that gelation occurs within 60 minutes, more preferably with in 60 seconds and most preferably with 1 to 10 seconds.
pH was raised using 3M NaOH solution, at ambient temperature (27° C.) and mixed equal volumes. […] PEG 600 is polyethylene glycol with a molecular weight of 600.
[…] of […] was dissolved in 1 ml PBS. […] 20 microliter […] solution in PBS and 20 microliter albumin solution were mixed on a glass plate to form a uniform solution.
[…] of BTANHS was dispersed in 0.9 ml PBS. […] 20 microliter BTANHS dispersion in PBS and 20 microliter of albumin solution were mixed on a glass plate to form a uniform dispersion.
[…] of BTANHS was dispersed in 0.8 ml PBS containing 2% PLURONIC F127 (from BASF corporation USA) as a surfactant. Sonication or high speed stirring helps to form the emulsion. […] 20 microliter BTANHS emulsion in PBS and 20 microliter of albumin solution were mixed in a 1 ml plastic centrifuge tube to form a uniform solution.
Polyethylene glycol serves as an organic solvent. 200 mg bovine serum albumin was dissolved in 0.800 ml PBS.
20 microliter albumin solution and 20 microliter crosslinkers solution were mixed on a glass plate to form a uniform solution.

Solubility in water = type: physicochemical
[1] = Degradation of crosslinked gel made with 8 arm PEG amine; type: physicochemical; conditions: gel with 8 arm PEG amine 20000; hydrolysis of ester bond of crosslinker
Procedure: 1 ml of each of these two solutions are mixed to produce a crosslinked gel. The crosslinked gel degrades due to hydrolysis of succinate ester bond in Hydroxylamine Succinate NHS ester.
0.12 g Hydroxylamine Glutarate NHS ester (Example 7) is dissolved in 5 ml phosphate buffered saline. 1 ml of each of two solutions are mixed to produce a crosslinked gel. The crosslinked gel degrades due to hydrolysis of glutarate ester bond in Hydroxylamine Glutarate NHS ester.

Molecule | time to soft hydrogel (albumin; crosslinker dispersion in PBS, 3M sodium hydroxide) | time to soft hydrogel (albumin; crosslinker emulsion in PBS with 2% PLURONIC F127, triethanol amine) | Notes (gel formed) (albumin; 5% albumin in PBS, crosslinker 10% in PBS) | Gel time (albumin; 5% albumin in PBS, crosslinker 10% in PBS, 3M NaOH, equal volumes) | Notes (gel formed) (albumin; 5% albumin in PBS, crosslinker (10%) in PEG 600) | Gel time (albumin; 5% albumin in PBS, crosslinker (10%) in PEG 600, 3M NaOH) | Notes (gel formed) (albumin; 10% albumin in PBS, crosslinker 10% in PBS) | Gel time (albumin; 10% albumin in PBS, crosslinker 10% in PBS, 3M NaOH, equal volumes) | Notes (gel formed) (albumin; 20% albumin in PBS, crosslinker 10% in PBS) | Gel time (albumin; 20% albumin in PBS, crosslinker 10% in PBS, 3M NaOH, equal volumes) | Notes (gel formed) (albumin; 20% albumin in PBS, crosslinker (10%) in PEG 600) | Gel time (albumin; 20% albumin in PBS, crosslinker (10%) in PEG 600, 3M NaOH) | Notes (gel formed) (albumin; 30% albumin in PBS, crosslinker 10% in PBS) | Gel time (albumin; 30% albumin in PBS, crosslinker 10% in PBS, pH raised with 3M NaOH, equal volumes) | solubility in water (Solubility in water) | degradation of crosslinked gel [1]
O=C(CC(C(=O)ON1C(=O)CCC1=O)C(CC(=O)ON1C(=O)CCC1=O)C(=O)ON1C(=O)CCC1=O)ON1C(=O)CCC1=O (stereo not shown) [BTANHS] | 5 min | 3 min | Did not gel | >28 min | Did not gel | >25 min | Soft gel | 18 min | Soft gel | 3 min | Soft gel | 5 min | Soft gel | 1 min | Water Insoluble | –
Hydroxylamine Glutarate NHS Ester | – | – | – | – | – | – | – | – | – | – | – | – | – | – | – | degrades
